For orientation: CC50 means the concentration giving 50% cytotoxicity. A high value points to better tolerance by the cells. A word on the inhibition: it is how much of the control response was suppressed. By IC50 is commonly meant the concentration needed to halve the response being measured.

16 compounds from publication PMC12387469, “Dolabellane Diterpenoids from Soft Coral Clavularia viridis with Anti-Inflammatory Activities” (Marine Drugs, 2025) can be followed below.

Data set [1] can be described thus: Cytotoxic effect in BV-2 cells, Cell Counting Kit-8 (CCK-8) assay. The data set is classed as cell-based. To be noted: mouse, BV-2 microglia cells. As to the method:
Cells were pretreated with or without compounds for 2 h and then induced with 40 μg/mL LPS for another 48 h. […] The absorbance was then measured at a wavelength of 450 nm with a microplate reader (Thermo Fisher Scientific, Marietta, OH, USA). The cell proliferation was expressed as a ratio of control.
For orientation: Tetrazolium assays rely on reduction of a dye to a coloured formazan, in cell work by metabolically active cells.

The test system of data set [2] is NO production in LPS-stimulated BV2 cells. Put plainly: Inhibition of NO production in LPS-stimulated BV2 cells (Griess reagent). To be noted: Mus musculus; for inhibition at 20 µM: BV-2, read-out: NO Inhibitory Activity % Inhibition (20 μM); for IC50: BV-2, read-out: NO Inhibitory Activity IC50.
Procedure: To evaluate the anti-inflammatory effect, all compounds were screened on an LPS-stimulated BV2 model to determine the inhibitory effects against NO production [21].
The BV-2 mouse microglia cell line was purchased from the Cell Bank of Shanghai Institute of Biochemistry and Cell Biology, Chinese Academy of Sciences (Shanghai, China), and was cultured in Dulbecco’s modified Eagle medium (DMEM, Gibco Invitrogen Corp., Suzhou, China) supplemented with 10% fetal bovine serum (FBS), 100 units/mL penicillin, and 100 mg/mL streptomycin. The cells were placed at 37 °C in a humidified incubator containing 5% CO2.
The inhibitory activity of the isolated compounds toward NO production was determined using the Griess reagent system (Beyotime). Cells were cultured in each well of 96-well plates at a density of 5 × 10^4 cells/well with 100 mL of DMEM for 24 h. Test samples dissolved in DMSO and diluted with DMEM were added, as well as 2 mg/mL LPS as a stimulus. The final drug concentration was 50 μM with 1% DMSO. Wells treated with only LPS served as model controls, and wells treated with neither LPS nor test samples served as blank controls (all contained 1% DMSO). After 24 h incubation, half of the medium (50 mL) in each well was harvested.

For the compound `CC1=CC(=O)C=C(C)CC2OC(=O)C(C)=C3CCC(C)(CC1)C32` (stereo not shown) [Compound 3, Clavirolide Y], the half-maximal cytotoxic concentration (CC50) at 50 h in data set [1] is more than 50 µM. In data set [2], the inhibition at 20 µM stood at 42.7 ± 3.5% and the IC50 was determined as 27 ± 0.6 µM.
Turning to `C=C1CC[C@@H]2O[C@@]2(C)C[C@@H](O)[C@@H]2C(C(C)(C)O)=CC[C@@]2(C)CC1` [Compound 10, clavularol F], the CC50 at 50 h in data set [1] is more than 50 µM. In data set [2], the inhibition at 20 µM is 68.9 ± 3.6% and the half-maximal inhibitory concentration (IC50) turned out to be 18.3 ± 0.6 µM.
For the compound `C=C1CCC=C(C)CC(O)C2=C(C(C)(C)O)CCC2(C)CC1` (stereo not shown) [Compound 14, clavudiol A], the cytotoxic concentration (CC50) at 50 h in data set [1] is more than 50 µM. The inhibition at 20 µM in data set [2] was 25.4 ± 2.4%.
Consider `[H]/N=C(/NC)NCCC[C@H](N)C(=O)O` [L-NMMA, L-NG-monomethyl arginine, reference compound], for which, in data set [2], the inhibition at 20 µM was determined as 76.7 ± 4.2% and the concentration for half-maximal inhibition (IC50) was 17.8 ± 0.6 µM.
In the case of `C=C1CCC=C(C)CC(O)C2C(C(C)(C)O)=CCC2(C)CC1` (stereo not shown) [Compound 13, clavularinlide E], the CC50 at 50 h in data set [1] is more than 50 µM. Further, in data set [2], the inhibition at 20 µM came to 45.6 ± 3.5% and the IC50 is 20.3 ± 0.3 µM.
`CC1=CC(=O)CC(C)=CC(O)C2C(C(C)(C)OO)=CCC2(C)CC1` (stereo not shown) [Compound 6, clavularol B]: in data set [1], the half-maximal cytotoxic concentration (CC50) at 50 h is more than 50 µM. For the same compound, the inhibition at 20 µM in data set [2] stood at 14.6 ± 1.2%.
For `CC1=C2C(O)CC3(C)CCC(C)CC(=O)CC(C)CC(OC1=O)C23` (stereo not shown) [Compound 1, Clavirolide W] the same measures were more than 50 µM and 15.1 ± 2.4%.
Compound `CC1=C2CC[C@@]3(C)CC[C@H](C)CC(=O)C[C@@H](C)C[C@@H](OC1=O)[C@H]23` [Compound 15, clavirolide C] came in with a cytotoxic concentration (CC50) at 50 h in data set [1] of more than 50 µM. Moreover, in data set [2], the inhibition at 20 µM came out at 48.3 ± 3.6% and the half-maximal inhibitory concentration (IC50) came to 23.4 ± 0.4 µM.
Consider `C=C1CC[C@@H]2O[C@@]2(C)C[C@@H](O)C2=C(C(C)(C)O)CC[C@@]2(C)CC1` [Compound 8, Clavularol D], for which, in data set [1], the CC50 at 50 h was more than 50 µM. For the same compound, the inhibition at 20 µM in data set [2] turned out to be 35.9 ± 4.2%.
The compound `C=C1CCC2OC2(C)CC(O)C2=C(C(C)(C)O)CCC2(C)CC1` (stereo not shown) [Compound 9, Clavularol E] returned a CC50 at 50 h in data set [1] of more than 50 µM. In addition, the inhibition at 20 µM in data set [2] amounted to 12.6 ± 2.6%.
In data set [1], `C=C1CC[C@H]2O[C@]2(C)C[C@@H](O)[C@H]2[C@](C)(CC1)CC[C@@]2(O)C(=C)C` [Compound 11, Clavularol G] displayed a CC50 at 50 h of more than 50 µM. Besides, the inhibition at 20 µM in data set [2] was 18.4 ± 2.8%.
For `CC1=CCC2(C)CCC3=C(C)C(=O)OC(CC(C)CC(=O)C1)C32OO` (stereo not shown) [Compound 4, Clavirolide Z] the same measures were more than 50 µM and 29 ± 2.8%.
In turn, `C=C1CCC(O)C(C)=CC2OC(C)(C)C3=C2C(C)(CC1)CC3` (stereo not shown) [Compound 12, Clavularol H] showed a CC50 at 50 h in data set [1] of more than 50 µM. Besides, in data set [2], the inhibition at 20 µM was 48.8 ± 4.2% and the IC50 was 20.3 ± 0.3 µM.
On to `CC1=C2CCC3(C)CCC(C)CC(=O)CC(C)CC(OC1=O)C23OO` (stereo not shown) [Compound 2, Clavirolide X], for which the CC50 at 50 h in data set [1] is more than 50 µM. Further, the inhibition at 20 µM in data set [2] came to 36.4 ± 1.7%.
For `C=C1CCC=C(C)CC(O)C2C(C)(CC1)CC1OC12C(C)(C)O` (stereo not shown) [Compound 7, clavularol C] the same measures were more than 50 µM and 24 ± 3.8%.
Take `CC1=CC(OO)C2(C)CCC3=C(C)C(=O)OC(CC(C)CC(=O)C1)C32` (stereo not shown) [Compound 5, clavularol A]: the CC50 at 50 h in data set [1] was more than 50 µM. In addition, in data set [2], the inhibition at 20 µM was found to be 26.8 ± 3.6%.
